Results from US9656972B2, “Compounds for treatment of cystic fibrosis” (THE CALIFORNIA INSTITUTE FOR BIOMEDICAL RESEARCH, priority 2013, dated 2017).

What was measured:
[1] = system: guinea-pigs; assay: Tracheal potential difference (TPD) after intra-tracheal dosing in guinea pigs; format: in vivo; settings: guinea pig; for TPD (mV): i.t. instillation, mean; for TPD Assessment Time after i.t. Treatment 1 hr / TPD Assessment Time after i.t. Treatment 3 hr / TPD Assessment Time after i.t. Treatment 5 hr / TPD Assessment Time after i.t. Treatment 8 hr / TPD Assessment Time after i.t. Treatment 24 hr / TPD Assessment Time after i.t. Treatment 48 hr: Table 3, mean ± sem
Description: Cystic fibrosis (CF) and chronic obstructive pulmonary disease (COPD) is dysregulated clearance of mucus across the cell layers lining the respiratory tract. A therapeutic strategy to treat these diseases is to inhibit these channels or the regulators of these channels in an effort to correct this mucus clearance defect. Potential difference is used in the clinic as a diagnostic tool for cystic fibrosis sufferers and for clinical trials. Small molecule inhibitors of these targets will enhance mucociliary clearance and thereby improve lung function and reduce the rate of exacerbations in cystic fibrosis (CF) and chronic obstructive pulmonary disease (COPD) patients. The guinea pig, unlike other rodents, has a lung structure which is roughly analogous to the human lung. For this reason, in terms of rodent models of lung function the guinea pig is often the model of choice for respiratory disease models including asthma, COPD and respiratory distress syndrome.
Preparation of Agar Bridges
Agar (3.5%) was dissolved in Hank's buffered salt solution (pH 7.4, 280-305 mosmkg_1H2O) by heating in a water bath at 100° C. A 30-40 cm length of polyethylene tubing, of which one end was bevelled at an angle of 20-60°, was then filled with the agar ensuring no air bubbles were formed or trapped within the tubing. The beveled tip of the tube was then dipped in the liquid agar, creating a small bulge. The exploring and reference electrodes constructed with the Hank's buffered salt solution/agar bridge were linked to a calomel half cell by immersion in 1M KCl.
Guinea pigs received a single dose of either the test article or vehicle instilled directly into the trachea. The animal was placed under short-term anesthesia using an inhaled isoflurane/nitrous oxide (N2O) 1:1 mixture (level 5/optimal for ˜10 sec.; 3.5/2 for 5 min.). At this suitable depth of anesthesia (loss of pedal and blink reflex), a single dose of either the test article, vehicle and/or positive control was instilled directly into the trachea. This was accomplished by very delicately inserted the 3″, 18 guage feeding tube into the trachea to preserve the potential difference of the mucosa. The guinea pig was allowed to recovered immediately; at times with the aid of supplemental O2. […] If there was apparent toxicity, animals were euthanized immediately and all observation was appropriately documented. As the animal was anesthetized during this treatment, no local anesthesia was necessary and there was no need to use a laryngoscope.
30 minutes prior to the 3 hr post dosing surgery each guinea pig received a dose of 0.4 mL of Midazolam-5 mg/mL, intra-peritoneal (i.p.) injection followed 25 minutes later with a 1 mL/kg of 50 mg/kg ketamine/6.5 mg/kg xylazine i.p. injection (previously prepared with 100 mg/mL ketamine and 25 mg/mL xylazine in Sterile Water for Injection USP mixed at 2:1:1 respectively). […] The trachea was exposed and visualized near the sternum using minimal blunt dissection. A lateral incision was made between the cartilaginous rings of the trachea close to the sternum. The beveled (distal) end of an exploring electrode was gently inserted into the lumen of the trachea moving in the direction towards the larynx, ensuring that spontaneous respiration was still possible. The beveled end of the reference electrode was positioned near the trachea in electrical contact with the flesh of the throat. A small volume of HBSS was applied into this region to ensure a good electrical contact. Potential difference was measured using a high impedance voltmeter (IsoMil) (5-0.5 cm increment measurement for verification—but only the initial placement value is recorded). The animal was terminated immediately after this procedure while still under anesthesia with an intra-cardiac dose of 0.5 mL of Euthasol.

[2] = Systemic (plasma) exposure after intratracheal dosing; format: in vivo, guinea pig; settings: 1 mg/kg single dose, compared with monomeric GS-9411
Description: A comparison of systemic (plasma exposure) of monomeric compound GS-9411 and dimeric compound 28 after intratracheal dosing was performed (at 1 mg/kg single dose).

[3] = Table 1, dose 30 ug/kg, 3 hr after dosing
[4] = Table 1, dose 300 ug/kg, 3 hr after dosing
[5] = Table 2 controls, dose 300 ug/kg, vehicle −12.4
[6] = Table 1, dose 0.2 ug/kg, 3 hr after dosing

SMILES: COC(=O)C(CCCC(NC(=O)OCCOCCOc1ccc(CCCCNC(=N)NC(=O)c2nc(Cl)c(N)nc2N)cc1)C(=O)OC)NC(=O)OCCOCCOc1ccc(CCCCNC(=N)NC(=O)c2nc(Cl)c(N)nc2N)cc1 (stereo not drawn) [Compound 46]
- TPD (mV) [1, 3]: −7.30 mV

SMILES: N=C(NCCCCc1ccc(OCCOCCNC(=O)NCCCCNC(=O)NCCOCCOc2ccc(CCCCNC(=N)NC(=O)c3nc(Cl)c(N)nc3N)cc2)cc1)NC(=O)c1nc(Cl)c(N)nc1N [Compound 37]
- TPD (mV) [1, 3]: −7.50 mV
- TPD (mV) [1, 4]: −5.50 mV

SMILES: N=C(N)Nc1ccc(C(=O)Oc2ccc3cc(C(=N)NCCOCCOCCNC(=N)c4ccc5cc(OC(=O)c6ccc(NC(=N)N)cc6)ccc5c4)ccc3c2)cc1 [Compound 50]
- TPD (mV) [1, 4]: −6.20 mV

SMILES: N=C(NCCCCc1ccc(OCCOCCOC(=O)NCCCCNC(=O)OCCOCCOc2ccc(CCCCNC(=N)NC(=O)c3nc(Cl)c(N)nc3N)cc2)cc1)NC(=O)c1nc(Cl)c(N)nc1N [Compound 28]
- TPD (mV) [1, 4]: −4.00 mV
- TPD Assessment Time after i.t. Treatment 1 hr ([1]; 30 μg/kg): −6.7 ± 0.65 (3)
- TPD Assessment Time after i.t. Treatment 3 hr ([1]; 30 μg/kg): −6.4 ± 0.60 (3)
- TPD Assessment Time after i.t. Treatment 5 hr ([1]; 30 μg/kg): −5.4 ± 1.03 (3)
- TPD Assessment Time after i.t. Treatment 8 hr ([1]; 30 μg/kg): −5.1 ± 0.54 (3)
- TPD Assessment Time after i.t. Treatment 24 hr ([1]; 30 μg/kg): −5.9 ± 0.18 (3)
- TPD Assessment Time after i.t. Treatment 48 hr ([1]; 30 μg/kg): −9.6 ± 1.43 (3)
- lower AUC (total area under the curve) versus GS-9411 [2]: 5 fold
- lower Cmax (maximal concentration) versus GS-9411 [2]: 20 ×

SMILES: N=C(NCCCCc1ccc(OCCOCCOCCOCCOCCO)cc1)NC(=O)c1nc(Cl)c(N)nc1N [Compound 66]
- TPD (mV) [1, 3]: −7.80 mV

SMILES: NC(=NCc1ccccc1)NC(=O)c1nc(Cl)c(N)nc1N [Benzamil]
- TPD (mV) [1, 5]: −6.2 mV
- TPD Assessment Time after i.t. Treatment 1 hr ([1]; 300 μg/kg): −8.9 (1)
- TPD Assessment Time after i.t. Treatment 3 hr ([1]; 300 μg/kg): −7.2 (1)
- TPD Assessment Time after i.t. Treatment 5 hr ([1]; 300 μg/kg): −8.5 (1)
- TPD Assessment Time after i.t. Treatment 8 hr ([1]; 300 μg/kg): −6.5 (1)
- TPD Assessment Time after i.t. Treatment 24 hr ([1]; 300 μg/kg): −4.8 (1)
- TPD Assessment Time after i.t. Treatment 48 hr ([1]; 300 μg/kg): −10.0 ± 0.07 (2)

SMILES: N=C(NCCCCc1ccc(OCCOCCNC(=O)CCC(=O)NCCOCCOc2ccc(CCCCNC(=N)NC(=O)c3nc(Cl)c(N)nc3N)cc2)cc1)NC(=O)c1nc(Cl)c(N)nc1N [Compound 67]
- TPD (mV) [1, 6]: −7.0 mV

SMILES: N=C(NCCCCc1ccc(OCCOCCOCCNC(=O)C(=O)NCCOCCOCCOc2ccc(CCCCNC(=N)NC(=O)c3nc(Cl)c(N)nc3N)cc2)cc1)NC(=O)c1nc(Cl)c(N)nc1N [Compound 69]
- TPD (mV) [1, 3]: −6.3 mV

SMILES: N=C(N)Nc1ccc(C(=O)Oc2ccc(CC(=O)OCC(=O)NCCOCCOCCNC(=O)COC(=O)Cc3ccc(OC(=O)c4ccc(NC(=N)N)cc4)cc3)cc2)cc1 [Compound 53]
- TPD (mV) [1, 3]: −9.3 mV

SMILES: N=C(NCCCCc1ccc(OCCOCCNC(=O)C(O)C(O)C(=O)NCCOCCOc2ccc(CCCCNC(=N)NC(=O)c3nc(Cl)c(N)nc3N)cc2)cc1)NC(=O)c1nc(Cl)c(N)nc1N (stereo not drawn) [Compound 16]
- TPD (mV) [1, 3]: −6.30 mV

SMILES: CN(C)C(=O)COC(=O)Cc1ccc(OC(=O)c2ccc(NC(=N)N)cc2)cc1 [Camostat]
- TPD (mV) [1, 5]: −4.9 mV

SMILES: N=C(NCCCCc1ccc(OCCOCCOCCNC(=O)CCC(=O)NCCOCCOCCOc2ccc(CCCCNC(=N)NC(=O)c3nc(Cl)c(N)nc3N)cc2)cc1)NC(=O)c1nc(Cl)c(N)nc1N [Compound 68]
- TPD (mV) [1, 6]: −6.9 mV
